Holding throughout (assay type): cell-based
Assay [1] deals with MCF7 (Mammary Gland, Adenocarcinoma). The assay can be described thus: Cell viability analysis (WST-1), MCF7. Conditions: Homo sapiens, MCF7, 72 h, Table 3, drug 10 μM, WST-1, OD450 nm, read-out: survival rate (viability) of cancer cells, MCF7. (In general: Formazan colour is commonly taken as a measure of viable cells.)
Assay [2] relates to TSGH-8301 (Urinary Bladder Carcinoma). The assay can be described thus: Cell viability analysis (WST-1), TSGH-8301. Particulars: 72 h, Table 3, drug 10 μM, WST-1, OD450 nm, read-out: survival rate (viability) of cancer cells, TSGH.
In assay [3] the test system is PC3 (Prostate Adenocarcinoma). In words: Cell viability analysis (WST-1), PC3. Particulars: 72 h, Table 3, drug 10 μM, WST-1, OD450 nm, read-out: survival rate (viability) of cancer cells, PC3.
Assay [4] deals with AGS (Gastric Adenocarcinoma). The assay can be described thus: Cell viability analysis (WST-1), AGS. Particulars: 72 h, Table 3, drug 10 μM, WST-1, OD450 nm, read-out: survival rate (viability) of cancer cells, AGS.
For assay [5], the system named is LoVo (Colorectal Adenocarcinoma). The assay can be described thus: Cell viability analysis (WST-1), LoVo. Conditions: Homo sapiens, LoVo, 72 h, Table 3, drug 10 μM, WST-1, OD450 nm, read-out: survival rate (viability) of cancer cells, LoVo.
The test system of assay [6] is H1650 (Lung Adenocarcinoma). In words: Cell viability analysis (WST-1), H1650. Particulars: Homo sapiens, NCI-H1650, 72 h, Table 3, drug 10 μM, WST-1, OD450 nm, read-out: survival rate (viability) of cancer cells, H1650.
The test system of assay [7] is HCT116 (Colorectal Carcinoma). In words: Cell viability analysis (WST-1), HCT116. Conditions: Homo sapiens, HCT-116, 72 h, Table 3, drug 10 μM, WST-1, OD450 nm, read-out: survival rate (viability) of cancer cells, HCT116 (WT).
Assay [8] has as its system A549 (Lung Adenocarcinoma). The assay can be described thus: Cell viability analysis (WST-1), A549. Particulars: Homo sapiens, A549, 72 h, Table 3, drug 10 μM, WST-1, OD450 nm, read-out: survival rate (viability) of cancer cells, A549.
The subject of assay [9] is HeLa (Cervix Adenocarcinoma). The assay can be described thus: Cell viability analysis (WST-1), HeLa. Conditions: Homo sapiens, HeLa, 72 h, Table 3, drug 10 μM, WST-1, OD450 nm, read-out: survival rate (viability) of cancer cells, HeLa.
A further assay deals with cancer cell lines. In words: Growth inhibitory effects on the panel of cancer cell lines. Particulars: drug 10 μM, 72 hours; for Numbers of inhibitory effect on cancer cell line: count of cancer cell lines inhibited; for inhibition effect on different cancer cell lines (in words): WST-1.
In assay [10] the test system is MKN-45 (Gastric Adenocarcinoma). The assay can be described thus: Cell viability analysis (WST-1), MKN-45. Particulars: Homo sapiens, MKN-45, 72 h, Table 3, drug 10 μM, WST-1, OD450 nm, read-out: survival rate (viability) of cancer cells, MKN-45.
Assay [11] concerns HL-60 (Acute Promyelocytic Leukemia). In words: Cell viability analysis (WST-1), HL-60. Conditions: Homo sapiens, HL-60; Table 3; drug 10 μM, 72 hours, WST-1, OD450 nm; read-out: survival rate (viability) of cancer cells, HL-60.
For assay [12], the system named is A375 (Amelanotic Melanoma). In words: Cell viability analysis (WST-1), A375. Particulars: Homo sapiens, A-375, 72 h, Table 3, drug 10 μM, WST-1, OD450 nm, lower viability = better inhibition, read-out: survival rate (viability) of cancer cells, A375.
Assay [13] has as its system HepG2 (Hepatocellular Carcinoma). The assay can be described thus: Cell viability analysis (WST-1), HepG2. Particulars: Homo sapiens, HepG2, 72 h, Table 3, drug 10 μM, WST-1, OD450 nm, read-out: survival rate (viability) of cancer cells, HepG2.

Each structure is given as a SMILES string. Counter-ions that a name gives are not always drawn.

The viability is a read-out of living cells in per cent, often relative to untreated cells.

Regarding `CC(C)NC[C@H](O)COc1ccc(CCOCC2CC2)cc1` [Levobetaxolol HCl], the viability at 10 µM in assay [1] worked out at 85%; in [2] it was 98.2%; in [3], 77.3%; in assay [4] it was 62.5%; in assay [5] it was 80%; in assay [6], 69.9%. For the same molecule, the viability at 10 µM in assay [7] was 70.3%; in assay [8], 75.9%; in [9] it was 88.7%; in [10], 119%; in [11], 107%; in assay [12] it was 76.9%. Besides, the viability at 10 µM in assay [13] stood at 99.2%. For the same molecule, the “Numbers of inhibitory effect on cancer cell line” value (shortened to “Numbers of inhibitory effect”) in the assay with cancer cell lines was found to be 0. Moreover, the “inhibition effect on different cancer cell lines (in words)” value in the assay with cancer cell lines was “significant inhibition effect”.

As to `CCOC(=O)[C@H](CCc1ccccc1)N[C@H]1CCc2ccccc2N(CC(=O)O)C1=O` [Benazepril hydrochloride], the viability at 10 µM in [1] was 126%; in assay [2], 77.5%; in [3], 80.7%; in assay [4], 76.7%; in assay [5], 96%; in assay [6], 61.6%. Also, the viability at 10 µM turned out to be 60% in [7]; 81.8% in assay [8]; 75.9% in assay [9]; 103% in assay [10]; 93.6% in assay [11]; 104% in [12]. In assay [13], the viability at 10 µM came out at 93%. Also, the “Numbers of inhibitory effect” value with cancer cell lines is given as 0. Besides, the “inhibition effect on different cancer cell lines (in words)” value in the assay on cancer cell lines was “significant inhibition effect”.

Regarding `CC(C)NCC(O)COc1ccc(COCCOC(C)C)cc1` (stereo not drawn) [Bisoprolol], the viability at 10 µM was found to be 112% in assay [1]; 87.5% in assay [2]; 95.2% in [3]; 80.3% in assay [4]; 119% in assay [5]; 80.7% in assay [6]. The viability at 10 µM in [7] was 118%; in assay [8], 124%; in [9] it was 111%; in assay [10] it was 79.7%; in assay [11], 85.7%; in [12], 117%. The viability at 10 µM in [13] worked out at 108%. In the assay on cancer cell lines, the “Numbers of inhibitory effect” value turned out to be 0. For the same molecule, in the assay on cancer cell lines, the “inhibition effect on different cancer cell lines (in words)” value was “significant inhibition effect”.

Regarding `O=C(O)c1cc(=O)c2ccccc2o1` [Chromocarb], the viability at 10 µM worked out at 100% in [1]; 97.2% in [2]; 88.3% in assay [3]; 81.8% in assay [4]; 72.5% in assay [5]; 78.8% in assay [6]. Moreover, the viability at 10 µM in assay [7] is 72.8%; in [8], 61.1%; in assay [9], 67.6%; in assay [10], 100%; in [11], 110%; in assay [12] it was 63.4%. For the same molecule, the viability at 10 µM in assay [13] came to 95.6%. The “Numbers of inhibitory effect” value in the assay with cancer cell lines is 0. For the same molecule, the “inhibition effect on different cancer cell lines (in words)” value in the assay with cancer cell lines is reported as “significant inhibition effect”.

In the case of `CC(=O)NS(=O)(=O)c1ccc(N)cc1` [sulfacetamide sodium], the viability at 10 µM worked out at 110% in assay [1]; 120% in [2]; 70.8% in [3]; 81.4% in [4]; 81.8% in assay [5]; 79.8% in [6]. Besides, the viability at 10 µM in [7] worked out at 76.7%; in assay [8], 70%; in [9], 75.9%; in [10] it was 118%; in assay [11], 112%; in assay [12], 64.9%. Besides, in [13], the viability at 10 µM was 98.7%. Also, the “Numbers of inhibitory effect” value in the assay on cancer cell lines is reported as 0. The “inhibition effect on different cancer cell lines (in words)” value with cancer cell lines was “significant inhibition effect”.

The values above are taken from patent publication US20170304388A1, “NEW INDICATION OF CARDIOVASCULAR DRUGS FOR PREPARATION OF CANCER INHIBITION PHARMACEUTICAL COMPOSITION” (LAUNX BIOMEDICAL CO., LTD., priority 2014, published 2017).
